44 molecules from patent US4849345A, “L-phenylalanine dehydrogenase and use thereof” (priority 1985, dated 1989) can be followed below.

SMILES strings stand for the structures. Where two headings read alike, the source gives them in different places.

Type in all cases: biochemical
Assay [1] has as its target T1, L-phenylalanine dehydrogenase produced by Sporosarcina ureae SCRC-R04 (Sporosarcina ureae, UniProt P97014).
T1 sequence (P97014 1-379): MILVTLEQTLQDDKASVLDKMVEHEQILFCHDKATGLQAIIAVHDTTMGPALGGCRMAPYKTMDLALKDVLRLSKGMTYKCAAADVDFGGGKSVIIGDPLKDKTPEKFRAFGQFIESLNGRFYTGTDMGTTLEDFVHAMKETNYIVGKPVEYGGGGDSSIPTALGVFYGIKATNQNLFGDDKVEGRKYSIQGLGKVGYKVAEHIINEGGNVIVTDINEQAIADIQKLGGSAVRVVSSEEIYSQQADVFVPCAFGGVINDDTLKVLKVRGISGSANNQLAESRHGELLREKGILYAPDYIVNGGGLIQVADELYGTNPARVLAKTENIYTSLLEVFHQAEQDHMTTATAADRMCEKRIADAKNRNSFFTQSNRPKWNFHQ
Briefly: Substrate and coenzyme specificity, oxidative deamination (Sporosarcina enzyme). Conditions: oxidative deamination; for activity at 10000 µM: substrate concentration 10 mM, L-phenylalanine = 100. On the procedure: The substrate concentration is 10 mM, except for the L-tyrosine concentration which is 1.4 mM.

The target of assay [2] is T2, L-phenylalanine dehydrogenase produced by Bacillus sp. SCRC-R79a (Lysinibacillus sphaericus, UniProt P23307).
T2 sequence (P23307 1-381): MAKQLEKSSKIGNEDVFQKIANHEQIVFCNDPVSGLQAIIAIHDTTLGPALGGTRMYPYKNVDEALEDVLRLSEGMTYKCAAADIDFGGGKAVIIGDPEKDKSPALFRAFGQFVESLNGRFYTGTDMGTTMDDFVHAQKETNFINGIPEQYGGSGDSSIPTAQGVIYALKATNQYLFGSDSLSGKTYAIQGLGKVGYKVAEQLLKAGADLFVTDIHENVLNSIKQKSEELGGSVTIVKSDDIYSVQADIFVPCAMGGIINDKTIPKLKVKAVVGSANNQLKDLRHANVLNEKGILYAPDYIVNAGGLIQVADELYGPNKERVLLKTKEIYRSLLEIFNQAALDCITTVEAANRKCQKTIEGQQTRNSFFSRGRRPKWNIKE
The assay is described as follows: Effect of metal ions and inhibitors on enzyme activity (Bacillus enzyme). More on the design: inoculated with Bacillus sp; endogenous in cells; host or cells: Bacillus sp; enzyme purified in house. Conditions: for activity at 1000 µM: read-out: Relative activity. Here is the method: Unless otherwise described, the concentration of metal cations and inhibitors is 1 mM.

In assay [3] the target is T1, L-phenylalanine dehydrogenase produced by Sporosarcina ureae SCRC-R04. The assay is described as follows: biochemical. Particulars: for activity at 1000 µM: read-out: Relative activity.
Assay [4] concerns the target T2, L-phenylalanine dehydrogenase produced by Bacillus sp. SCRC-R79a. The assay is described as follows: Substrate and coenzyme specificity, oxidative deamination (Bacillus enzyme). More on the design: inoculated with Bacillus sp; endogenous in cells; host or cells: Bacillus sp; enzyme purified in house. On the procedure: The substrate concentration is 10 mM except for the L-tyrosine concentration which is 1.4 mM.

Setting [5] is: 1 mM, not added = 100, listed as Fe^3+, 1000 µM.
Where [6] appears, read: read-out: Relative activity (%).
Setting [7] is: oxidative deamination, substrate concentration 10 mM, L-phenylalanine = 100, read-out: Relative activity (%).

As to `NC(C(=O)O)c1ccccc1` (racemic) [DL-phenylglycine], the “action of the enzyme on the amino acid as substrate (in words)” value (“action of the enzyme on the amino acid” for short) in assay [1] is recorded as “cannot serve as a substrate”.
`O=C(O)c1cc(SSc2ccc([N+](=O)[O-])c(C(=O)O)c2)ccc1[N+](=O)[O-]` [5,5'-Dithio-bis(2-nitrobenzoic acid)]: the activity at 1000 µM amounted to 74% in assay [2] (1 mM, not added = 100) and 0% in assay [3] (1 mM, not added = 100). Also, the “effect on enzyme activity (in words)” value in assay [3] was “inhibited”.
Turning to `Oc1cccc2cccnc12` [8-Oxyquinoline], the Relative activity was determined as 96 in assay [2] (1000 µM) and 101 in assay [3] (1000 µM).
Regarding `[Ag+]` [Ag^+], the “effect on enzyme activity (in words)” value in assay [2] and in assay [3] was “inhibited” in each case. Further, the Relative activity is listed as 0% in assay [2] (1 mM, not added = 100) and 0% in assay [3] (1 mM, not added = 100).
With `[Al+3]` [Al^3+], the Relative activity in assay [2] (1 mM, not added = 100) is 99%; in assay [3] (1 mM, not added = 100) it was 153%.
For the molecule `[Ba+2]` [Ba^2+], the Relative activity in assay [2] (1 mM, not added = 100) is listed as 93%; in assay [3] (1 mM, not added = 100), 106%.
`[Ca+2]` [Ca^2+]: the Relative activity in assay [2] (1 mM, not added = 100) came to 92%; in assay [3] (1 mM, not added = 100), 100%.
As to `[Cd+2]` [Cd^2+], the Relative activity came to 102% in assay [2] (1 mM, not added = 100) and 70% in assay [3] (1 mM, not added = 100).
In the case of `[Cu+2]` [Cu^2+], the Relative activity is listed as 85% in assay [2] (1 mM, not added = 100) and 91% in assay [3] (1 mM, not added = 100).
On to `N[C@H](Cc1ccccc1)C(=O)O` [D-phenylalanine], for which the “action of the enzyme on the amino acid” value in assay [1] and in assay [4] (oxidative deamination) was “cannot serve as a substrate” each time.
On to `O=C(O)CN(CCN(CC(=O)O)CC(=O)O)CC(=O)O` [EDTA], for which the activity at 1000 µM in assay [2] was 120%; in assay [3] it was 119%.
As to `[Fe+2]` [Fe^2+], the Relative activity is recorded as 116% in assay [2] (1 mM, not added = 100, 1000 µM); 117% in assay [2] (setting [5]); 127% in assay [3] (1 mM, not added = 100, 1000 µM); 161% in assay [3] (setting [5]).
As for `[Hg+2]` [Hg^2+], the “effect on enzyme activity (in words)” value in assay [2] and in assay [3] was “inhibited” each time. For the same molecule, the Relative activity in assay [2] (0.01 mM, not added = 100) is given as 38%; in assay [3] (0.01 mM, not added = 100), 0%.
Turning to `NO` [Hydroxylamine], the Relative activity was 90% in assay [2] (10 mM, not added = 100) and 173% in assay [3] (10 mM, not added = 100).
For the molecule `O=C(O)CI` [Iodoacetic acid], the activity at 1000 µM was 127% in assay [2] and 91% in assay [3].
On to `CCSCC[C@H](N)C(=O)O` [L--Ethionine, L-ethionine], for which the activity at 10000 µM came to 7% in assay [1] (setting [6]) and 3.1% in assay [4] (setting [6]).
For the molecule `CC[C@H](C)[C@H](N)C(=O)O` [L--Isoleucine, L-isoleucine], the activity at 10000 µM in assay [1] (setting [6]) was 0.54%. Also, the “action of the enzyme on the amino acid” value in assay [4] (oxidative deamination) is listed as “cannot serve as a substrate”.
The like results for `CC(C)C[C@H](N)C(=O)O` [L--Leucine, L-leucine] were, in that order, 2.3% and “cannot serve as a substrate”.
On to `CSCC[C@H](N)C(=O)O` [L--Methionine, L-methionine], for which the “action of the enzyme on the amino acid” value is “act very weakly” in assay [1] and “acting very weakly” in assay [4] (oxidative deamination). In addition, the activity at 10000 µM was found to be 4.1% in assay [1] (setting [6]) and 3% in assay [4] (setting [6]).
As for `CCCC[C@H](N)C(=O)O` [L--Norleucine, L-norleucine], the activity at 10000 µM in assay [1] (setting [6]) was 15%; in assay [4] (setting [7]), 3.9%.
For `CCC[C@H](N)C(=O)O` [L--Norvaline, L-norvaline], the activity at 10000 µM in assay [1] (setting [6]) was 6.3%; in assay [4] (setting [7]), 1.3%.
As for `N[C@@H](Cc1ccccc1)C(=O)O` [L--Phenylalanine, L-phenylalanine], the “action of the enzyme on the amino acid” value in assay [1] and in assay [4] (oxidative deamination) was “acting strongly” throughout. Moreover, the activity at 10000 µM in assay [1] (setting [6]) and in assay [4] (setting [7]) was 100% throughout.
For `N[C@@H](Cc1c[nH]c2ccccc12)C(=O)O` [L--Tryptophan, L-tryptophan], the “action of the enzyme on the amino acid” value was “act very weakly” in assay [1] and “acting very weakly” in assay [4] (oxidative deamination). Further, the values for the activity at 10000 µM in assay [1] (setting [6]) and in assay [4] (setting [7]) were 6.8% and 1.6%, respectively.
With `N[C@@H](Cc1ccc(O)cc1)C(=O)O` [L--Tyrosine, L-tyrosine], the “action of the enzyme on the amino acid” value in assay [1] is “act very weakly”; in assay [4] (oxidative deamination), “acting strongly”. Besides, the activity at 1400 µM was determined as 5.4% in assay [1] (substrate concentration 1.4 mM, read-out: Relative activity (%)) and 72% in assay [4] (setting [6]).
Consider `CC(C)[C@H](N)C(=O)O` [L--Valine, L-valine], for which the activity at 10000 µM in assay [1] (setting [6]) came to 3.1%. Further, in assay [4] (oxidative deamination), the “action of the enzyme on the amino acid” value was “cannot serve as a substrate”.
As for `C[C@H](N)C(=O)O` [L-alanine], the “action of the enzyme on the amino acid” value in assay [1] and in assay [4] (oxidative deamination) was “cannot serve as a substrate” in each case.
Consider `N=C(N)NCCC[C@H](N)C(=O)O` [L-arginine], for which the “action of the enzyme on the amino acid” value in assay [1] and in assay [4] (oxidative deamination) was “cannot serve as a substrate” in each case.
Turning to `NC(=O)C[C@H](N)C(=O)O` [L-asparagine], the “action of the enzyme on the amino acid” value in assay [1] and in assay [4] (oxidative deamination) was “cannot serve as a substrate” each time.
With `N[C@@H](CC(=O)O)C(=O)O` [L-aspartic acid], the “action of the enzyme on the amino acid” value in assay [1] and in assay [4] (oxidative deamination) was “cannot serve as a substrate” each time.
Regarding `N[C@@H](CS)C(=O)O` [L-cysteine], the “action of the enzyme on the amino acid” value in assay [1] and in assay [4] (oxidative deamination) was “cannot serve as a substrate” in each case.
Take `CC[C@H](N)C(=O)O` [L-α-amino-n-butyric acid]: the “action of the enzyme on the amino acid” value in assay [4] (oxidative deamination) is on record as “cannot serve as a substrate”.
As to `[Li+]` [Li^+], the Relative activity in assay [2] (1 mM, not added = 100) stood at 95%; in assay [3] (1 mM, not added = 100), 96%.
On to `[Mg+2]` [Mg^2+], for which the Relative activity in assay [2] (1 mM, not added = 100) stood at 99%; in assay [3] (1 mM, not added = 100), 90%.
With `[Mn+2]` [Mn^2+], the Relative activity in assay [2] (1 mM, not added = 100) is on record as 95%; in assay [3] (1 mM, not added = 100), 129%.
On to `CCN1C(=O)C=CC1=O` [N--Ethylmaleimide, N-ethylmaleimide], for which the activity at 1000 µM was 162% in assay [2] (1 mM, not added = 100) and 21% in assay [3] (1 mM, not added = 100). The “effect on enzyme activity (in words)” value in assay [3] is recorded as “inhibited”.
On to `[N-]=[N+]=[N-].[Na+]` [NaN3], for which the Relative activity was found to be 102% in assay [2] (1 mM, not added = 100) and 100% in assay [3] (1 mM, not added = 100).
On to `[Na+]` [Na^+], for which the Relative activity amounted to 93% in assay [2] (1 mM, not added = 100) and 92% in assay [3] (1 mM, not added = 100).
For `[Ni+2]` [Ni^2+], the Relative activity in assay [2] (1 mM, not added = 100) turned out to be 100%; in assay [3] (1 mM, not added = 100), 100%.
As for `O=C(O)c1cc[c]([Hg][Cl])cc1` [PCMB], the “effect on enzyme activity (in words)” value in assay [2] and in assay [3] was “inhibited” each time. Further, the Relative activity in assay [2] (0.2 mM, not added = 100) came to 0%; in assay [3] (0.2 mM, not added = 100), 0%.
`[Pb+2]` [Pb^2+]: the Relative activity in assay [2] (1 mM, not added = 100) came to 53%; in assay [3] (1 mM, not added = 100), 81%.
In the case of `[Sn+2]` [Sn^2+], the Relative activity in assay [2] (0.5 mM, not added = 100) was 110%; in assay [3] (0.5 mM, not added = 100), 123%.
Consider `[Zn+2]` [Zn^2+], for which the Relative activity in assay [2] (1 mM, not added = 100) amounted to 96%; in assay [3] (1 mM, not added = 100) it was 99%.
For `c1cnc2c(c1)ccc1cccnc12` [o-Phenanthroline], the activity at 1000 µM in assay [2] (1 mM, not added = 100) was 99%; in assay [3] (1 mM, not added = 100), 103%.
In the case of `c1ccc(-c2ccccn2)nc1` [α,α'-Dipyridyl], the activity at 1000 µM in assay [2] (1 mM, not added = 100) is 104%; in assay [3] (1 mM, not added = 100), 124%.
